Test in all cases: DTP human tumour cell line panel, 48 h
For test [1], the system named is COLO 205 colon.
The subject of test [2] is SF-295 CNS.
Test [3] deals with OVCAR-8 ovarian.
Test [4] deals with UACC-62 melanoma.
The subject of test [5] is HL-60(TB) leukemia.
The subject of test [6] is UACC-257 melanoma.
The subject of test [7] is IGROV1 ovarian.
Test [8] has as its system RXF 393 renal.
Test [9] relates to M14 melanoma.
The subject of test [10] is LOX IMVI melanoma.
Test [11] deals with SK-OV-3 ovarian.
The test system of test [12] is HOP-92 NSCLC.
In test [13] the test system is MALME-3M melanoma.
For test [14], the system named is HS 578T breast.
Test [15] deals with T-47D breast.
The subject of test [16] is DU-145 prostate.
Test [17] has as its system MDA-MB-231 breast.

Each structure is given as a SMILES string.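 Test compounds were applied to cells in 96-well plates for 48 hours at 5 doses. TGI marks complete inhibition of growth.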 Where a SMILES comes first, the peptide text is derived from it. The star is where a group is joined. Boc = CC(C)(C)OC(=O)*

Consider `C/C(=N\NS(=O)(=O)c1ccc(C)cc1)C(CN1CCOCC1)C(c1ccccc1)c1c(O)c2ccccc2oc1=O` (centres undefined), for which the TGI in test [1] was greater than 100 µM; in test [2], greater than 100 µM; in test [3], greater than 100 µM; in test [4], greater than 100 µM; in test [5], 76.1 µM; in test [6] it was greater than 100 µM. Also, the TGI in test [7], in test [8], in [9], in test [10], in test [11] and in test [12] was greater than 100 µM in each case. This compound had a TGI in test [13] greater than 100 µM.
Turning to `CCN1CCC(O)(c2ccc(C)cc2)C(C(=O)c2ccc(C)cc2)C1` (centres undefined), the TGI in test [1] is 48.8 µM; in [2], greater than 100 µM; in [3], 49.9 µM; in test [4] it was greater than 60 µM; in test [5] it was 47.7 µM; in test [6], 36.6 µM. Further, the TGI in test [7] was greater than 58.9 µM; in [9], greater than 57.8 µM; in test [10] it was greater than 61.2 µM; in test [11], greater than 100 µM; in [12], 40.1 µM; in test [13], 35.1 µM.
For `COC(=O)/C=C/c1ccc2c(c1)CCC2`, the TGI is greater than 100 µM in test [14]; greater than 100 µM in test [15]; greater than 100 µM in test [2]; greater than 100 µM in test [3]; 73.6 µM in test [5]; greater than 100 µM in [6]. Also, the concentration for total growth inhibition (TGI) in [7], in test [8], in test [9], in test [10], in test [16] and in test [17] was greater than 100 µM in each case. Further, the TGI in test [11] was greater than 100 µM; in [12], 46.7 µM; in test [13] it was greater than 100 µM.
In the case of `Cc1nc2c(n1CCO)C(=O)c1ccccc1C2=O`, the TGI in test [1] is 41.9 µM; in test [2], greater than 100 µM; in test [3] it was greater than 100 µM; in test [4] it was 30.9 µM; in test [5] it was 54.2 µM; in [6], 34 µM. The TGI in test [7] is 84 µM; in test [8], greater than 100 µM; in test [9], 52.3 µM; in [10], greater than 100 µM; in [11] it was greater than 100 µM; in test [13], 24.2 µM.
Turning to `O=C1/C(=C/C=C/c2ccccc2)N=C(c2ccccc2)N1C1Nc2cc3c(cc2S1)NC(N1C(=O)/C(=C/C=C/c2ccccc2)N=C1c1ccccc1)S3` (centres undefined), the TGI in test [14], in [15], in [2], in test [3], in test [5] and in test [6] was greater than 100 µM in each case. In addition, the TGI in test [7], in [8], in test [9], in [10], in test [16] and in test [17] was greater than 100 µM each time. The TGI is greater than 100 µM in test [11] and 85.2 µM in test [12].
Regarding `CNC(=O)CN(CC(=O)NC)C(=O)NC`, the TGI in [1], in [2], in test [3], in [4], in test [5] and in test [6] was greater than 100 µM throughout. Moreover, the TGI in test [7], in [8], in test [9], in [10], in test [11] and in test [12] was greater than 100 µM throughout. In addition, the TGI in [13] is greater than 100 µM.
With `CC(NC(=O)C(NC(=O)OC(C)(C)C)C(C)C)C(=O)N1CCCC1C(=O)NCC(=O)NC(C(=O)NCC(=O)O)C(C)C` (centres undefined) (Boc-VAPGVG-OH; configuration not given here), the TGI in test [1], in test [15], in [2], in [3], in test [4] and in test [5] was greater than 100 µM throughout. Also, the TGI in [6], in test [7], in test [9], in [10], in [16] and in [17] was greater than 100 µM throughout. The TGI in [11], in test [12] and in [13] was greater than 100 µM each time.
In the case of `OC12c3ccccc3C1(N1CCOCC1)CCCCC21OCCCO1` (centres undefined), the TGI in test [1], in test [2], in [3], in test [4], in [5] and in test [6] was greater than 100 µM in each case. Further, the TGI in test [7], in [8], in test [9], in test [10], in test [11] and in [13] was greater than 100 µM in each case.
Turning to `COC(=O)CCCN(C)c1n[nH]c(N)n1`, the TGI in test [1], in test [2], in test [3], in test [4], in test [5] and in test [6] was greater than 100 µM each time. The TGI in test [7], in test [8], in test [9], in test [10] and in [11] was greater than 100 µM throughout.
Regarding `O=S1(=O)OCCOS(=O)(=O)C1I`, the TGI in test [1], in test [2], in test [3], in [4], in test [5] and in test [6] was greater than 100 µM each time. In addition, the TGI in test [7], in test [9], in test [11], in [12] and in test [13] was greater than 100 µM throughout.
Take `CN(C)c1ccc(-c2cc(=O)c3cc4c(cc3[nH]2)OCO4)cc1`: the TGI in test [1], in test [2], in test [3], in test [4], in test [5] and in [6] was greater than 100 µM in each case. Besides, the TGI in [7], in [8], in [9], in [10] and in test [13] was greater than 100 µM throughout.
